According to patent US20150190523A1, “BIOAVAILABILITY OF ORAL METHYLNALTREXONE INCREASES WITH A PHOSPHATIDYLCHOLINE-BASED FORMULATION” (The University of Chicago, priority 2012, published 2015):

How the values were obtained:
[1] = white crystalline powder, typically bromide salt, commercially provided; cited from earlier work
[2] = Pharmacokinetics of MNTX in rat plasma after oral gavage (LC/MS/MS); conditions: male, Sprague-Dawley, in vivo, 250 mg/kg; for AUC(0-t) / Cmax / Tmax: rats, 250 mg/kg oral
Experimental: Animals, MNTX Administration, and Blood Collection.
The experimental protocol was approved by the Institutional Animal Care and Use Committee. Male Sprague-Dawley rats (190-200 g) were obtained from Luye Pharma (Yantai, China) (Wang et al., 2010). Rats were allowed to acclimatize in environmentally controlled quarters (24±2° C. and a 12:12 h light-dark cycle). The rats were fasted for 12 h prior to the experiments.
Ten rats received test compounds via oral gavage. […] Venous blood samples were drawn from the ocular venous plexus at 0, 10, 20, 30, 45, 60, 90, 120, 150, 180, 240, 300, 420 and 540 min. The samples were placed into heparinized tubes and centrifuged at 1500×g for 5 min. The plasma samples were immediately stored in a freezer (−20° C.) for the pending assay.
Plasma Sample Processing.
A […] plasma sample was transferred to a 1.5 mL microcentrifuge tube. Then 0.2 mL of acetonitrile and […] of ketamine hydrochloride (I.S.) were mixed with the plasma sample and vortexed for 5 min before being centrifuged at 1500×g for 5 min. The supernatant was transferred to another tube and dried under a gentle flow of nitrogen. The residue was dissolved in […] of mobile phase, and then centrifuge at 15,000×g for 10 min. Lastly, 5 μL of supernatant was injected into the LC/MS/MS system for analysis.
Determination of MNTX Concentration by LC/MS/MS.
The concentrations of MNTX in rat plasma samples were determined with LC/MS/MS. MNTX plasma levels and the internal standard determined by LC/MS/MS were tested at the time points listed above. The assay was performed using an HPLC system with an Agilent 1100 pump, an Agilent 1100 auto sampler, and a Hanbang C18 column (150 mm×2.1 mm, 5 μm) with a guard column (Wang et al., 2011). For the mobile phase, methanol/water (60/40, containing 0.1% of acetic acid) was pumped at a flow rate of 0.2 mL/min. The samples were stored at 4° C. in the auto sampler before 5 μL was injected into the column. The detector was an API 4000 triple quadruple mass (MS) spectrometer (Applied Biosystems, Foster City, Calif.), and Analyst™ software version 4.1 was used for MS control and spectral processing. Using electrospray ionization (ESI) in positive ion mode, the MS parameters were optimized as follows: heater temperature, 350° C.; ion source voltage, 4000V. Multiple reaction monitoring was used, and the selected single charged precursor-production ion pairs were m/z 356.08→226.95 for MNTX and m/z 237.93→125.05 for ketamine hydrochloride.
Data analysis. Pharmacokinetic data were analyzed by software (Kinetic 4.4; Thermo Electron Co., Waltham. Mass.). All data were expressed as the mean±standard error (S.E.). A one-way ANOVA determined whether the results had statistical significance. The level of statistical significance was set at P<0.05.

For `C[N+]1(CC2CC2)CCC23c4c5ccc(O)c4OC2C(=O)CCC3(O)C1C5` (centres unmarked) [MNTX, methylnaltrexone bromide], the solubility in water [1] is listed as “freely soluble in water”, the AUC [2] is listed as 1060 ng·h/mL and the half-life [2] is listed as 4.32 h. The AUC(0-t) ([2]; AUC0-540 min, 0 to 540 min, mean±S.E.) was 1410 ± 448 ng·h/mL, the AUC(0-t) ([2]; First peak AUC0-150 min, 0 to 150 min, n=5, mean) was 341 ± 94.5 ng·h/mL and the Cmax ([2]; First peak Cmax, first plasma peak, n=5, mean) was 276 ± 102 ng/mL. For the same compound, the Tmax ([2]; First peak Tmax, first plasma peak) was 2 h, the Cmax ([2]; Second peak Cmax, second plasma peak, n=5, mean) was 448 ± 126 ng/mL and the Tmax ([2]; Second peak Tmax, second plasma peak) was 3 h. The Cmax ([2]; peak plasma concentration (Cmax), overall profile, mean±S.E.) was 448 ± 126 ng/mL and the Tmax ([2]; time to peak plasma concentration (Tmax), overall profile) was 3 h.
